The values that follow come from patent US20190365784A1, “USE OF BRASSINOSTEROID ANALOGS FOR THE TREATMENT OF DERMAL DISORDERS BY SELECTIVELY MODULATING LIVER X RECEPTORS (LXR) AND DERMAL DISEASE TREATMENT BY BRASSINOSTEROID ANALOGS ACTING AS SELECTIVE LIVER X RECEPTOR (LXR) MODULATORS” (CONSEJO NACIONAL DE INVESTIGACIONES CIENTÍFICAS Y TÉCNICAS …, priority 2015, published 2019).

Data set [1] relates to imiquimod-induced skin lesions. Description: Imiquimod-induced psoriasis model in mice: clinical signs and dorsal skin histopathology. The format is in vivo. Also on record: key to Hyperkeratosis, protective effect / Epidermal serocellular crust, protective effect / Acanthosis, protective effect / Dermal inflammatory infiltrates, protective effect: the (+) sign represents the presence of a protective effect; a (−) sign represents the absence of protective effect. An excerpt:
To test whether Compound I might ameliorate the signs of psoriasis, we topically administered Compound I to imiquimod-induced skin lesions in mice. The imiquimod mouse model of psoriasis-like skin inflammation is characterized by lesions that show augmented epidermal cell proliferation, abnormal keratinocyte differentiation, neutrophil accumulation in epidermal microabcesses, and neoangiogenesis.
For this study, thirty two 8-week old female Balbc/J mice were housed […] in positively ventilated polysulfonate cages with HEPA filtered air at a density of 4 mice per cage. The animal room was lighted entirely with artificial fluorescent lighting, with a controlled 12 h light/dark cycle (6 am to 6 pm light). The normal temperature and relative humidity ranges in the animal rooms were 22±4° C. and 50±15%, respectively. The animal rooms were set to have a minimum of 15 air exchanges per hour. Filtered tap water, acidified to a pH of 2.5 to 3.0, and standard rodent chow were provided ad libitum. After 1 week of acclimation mice were randomized into 4 groups (n=8/each) as shown below (Table 1).
1. IMQ induction: On day 0 all grouped mice received a topical dose of 62.5 mg of IMQ cream (5%) on the shaved back for 6 consecutive days. (Day 0 to Day 5)
3. Mice were scored for clinical parameters of disease based on degree of erythema, scaling and thickening independently on a scale of 0-4. 0=none; 1=slight; 2=moderate; 3=moderate to severe: 4=severe. These observations were recorded on day 0, 2, 4, 6, and 8. On the same days, back skin thickness was measured with calipers.
5. Mice were sacrificed on day 10 by CO2 asphyxiation.
6. A part of the back skin was harvested and fixed for histology. Slides were processed, stained with H&E for histology assessment.
Dorsal skin sections were evaluated histopathologically for evidence of key features of psoriasis, such as parakeratosis, hyperkeratosis (thickening of the stratum corneum), acanthosis (diffuse thickening of the stratum spinosum of the skin), epidermal serocellular crusts, epidermal microabscesses, basilar papillae, dermal inflammatory infiltrates and dilated tortuous capillaries (Table 2. Histopathological scoring system and definition used in the Imiquimod psoriasis model).

A short description of data set [2]: Body and spleen weight in imiquimod psoriasis model mice. The note with it: 9 days topical treatment.
Procedure: Mice were dosed with 0.1-0.2 ml of vehicle [90% (v/v) DMSO in pyrogen-free sterile water] or test compounds (0.1-0.2 ml of Compound I) or reference compound (˜0.05 mg clobetasol propionate, 0.5 mg/g cream) for 9 days (day 0-day 8) as indicated in Table 1. Compound I Doses 1 and 2 were 0.05% (w/v) and 0.1% (w/v) in 90% (v/v) DMSO in vehicle.
Body weights were measured daily.
Spleens were harvested, weighed and discarded.
Another data set deals with T1, LXR-alpha (Homo sapiens, UniProt Q13133).
T1 sequence (Q13133 1-447): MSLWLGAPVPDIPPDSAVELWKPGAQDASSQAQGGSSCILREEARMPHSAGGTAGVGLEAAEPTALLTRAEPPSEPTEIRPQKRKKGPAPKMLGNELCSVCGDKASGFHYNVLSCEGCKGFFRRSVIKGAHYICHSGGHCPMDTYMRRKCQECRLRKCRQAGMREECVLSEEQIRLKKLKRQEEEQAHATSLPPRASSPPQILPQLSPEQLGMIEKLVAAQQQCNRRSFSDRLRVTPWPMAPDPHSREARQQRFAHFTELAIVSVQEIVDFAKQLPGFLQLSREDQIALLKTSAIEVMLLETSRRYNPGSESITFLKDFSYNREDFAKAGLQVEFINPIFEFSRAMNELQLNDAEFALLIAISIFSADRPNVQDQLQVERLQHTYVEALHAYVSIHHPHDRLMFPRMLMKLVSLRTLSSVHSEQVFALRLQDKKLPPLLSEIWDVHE
T1 sequence (P19793 1-462 partner): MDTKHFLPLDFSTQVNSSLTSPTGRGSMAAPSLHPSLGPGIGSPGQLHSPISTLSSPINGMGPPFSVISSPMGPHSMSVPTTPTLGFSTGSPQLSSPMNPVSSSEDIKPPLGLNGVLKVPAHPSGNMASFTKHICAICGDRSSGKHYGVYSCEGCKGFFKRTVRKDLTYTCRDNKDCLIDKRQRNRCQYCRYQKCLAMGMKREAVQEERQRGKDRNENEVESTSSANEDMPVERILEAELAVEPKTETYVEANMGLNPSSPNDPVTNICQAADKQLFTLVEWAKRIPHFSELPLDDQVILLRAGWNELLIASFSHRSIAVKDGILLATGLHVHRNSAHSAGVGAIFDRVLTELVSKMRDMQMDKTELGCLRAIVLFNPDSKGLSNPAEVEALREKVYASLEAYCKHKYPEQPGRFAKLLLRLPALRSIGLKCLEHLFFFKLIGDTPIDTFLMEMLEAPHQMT
In words: LXR-alpha/RXR LRE-luciferase reporter in transfected HEK293T cells. Format: cell-based. The note with it: 10 uM, 18 h. The text has this: Since we had previously shown that the beneficial effects of the compounds of the invention are independent of glucocorticoid receptor (GR) activation, we set forth to investigate if they might exert their actions through activation of liver X receptors (LXR). For this purpose we used cultured cells transiently transfected with LXR-alpha, the retinoid X receptor (RXR) and a LXR response element-luciferase reporter (LRE-LUC). A. Human embryonic kidney cells (HEK293T; 5×10^5 cells/well) were cultured in DMEM medium supplemented with 10% (v/v) fetal bovine serum, 100 ug/ml of streptomycin, 100 IU/ml of penicillin and 2 mM glutamine. For the transient transfections, the cell cultures were added with plasmids carrying LXR-alpha (pLXR-alpha; 0.6 ug), the retinoid X receptor (pRXR; 0.2 ug), a LXR response element-luciferase reporter (pRE-LUC; 0.7 ug) and beta-galactosidase gene (pRSV-LacZ; 0.6 ug) as a transfection control, using Lipofectamine 2000 (Invitrogen). […] Compounds III to VI are […] analogs bearing a fluorine atom at C-6. To assess LXR-alpha activation, at the end of the incubation period luciferase activity was measured by use of a luciferase assay system (Promega). The results of three independent assays, carried out in duplicate for each condition, are reported.

The nature of data set [3]: Plasma total cholesterol, HDL-cholesterol and triglyceride in C57BI mice after 5 days i.p. treatment. Format: in vivo. The settings on record: male C57BI mice; T0901317 5 mg/kg i.p. daily for 5 days. As for the experimental part:
(§1) Administration of synthetic LXR agonists such as T0901317 induces a marked increment of liver lipogenesis that leads to hepatic steatosis and plasma hypertriglyceridemia.
(§2) Male C57BI mice received daily for 5 days intraperitoneal injections containing either 10 mg Compound I/kg, or 5 mg T0901317/kg, or vehicle [90% (v/v) DMSO in apyrogenic sterile water]. On the sixth day of the assay, the animals were fasted for 4 h before decapitation. Blood plasma was obtained for the determination of total cholesterol, HDL-cholesterol and triglyceride contents. The livers were resected, and their weights and colors used as gross markers of increased liver triglyceride contents.

Data set [4] in a line: Liver weight and gross morphology (hepatic steatosis) in C57BI mice after 5 days i.p. treatment. The settings on record: male C57BI mice, T0901317 5 mg/kg i.p. daily for 5 days. The format is in vivo. As for the experimental part: as §1, §2
Where [5] appears, read: psoriatic mice, topical 0.05%, QD 9 days.
[6] abbreviates: topical 0.05%, summary of Table 3.

“And” between values parts separate entries of the source, which are not always exact repeats. Equal entries are not always repeated. Marks after values point to notes of the source that are not given here.

On to `CCC(=O)O[C@]1(C(=O)CCl)[C@@H](C)C[C@H]2[C@@H]3CCC4=CC(=O)C=C[C@]4(C)[C@@]3(F)[C@@H](O)C[C@@]21C` [Clobetasol, clobetasol propionate, reference compound], for which, in data set [1] (Clobetasol-treated mice), the “acanthosis reduced versus 0.1% (w/v) Compound I-treated animals” value is recorded as 33% and the “dermal inflammatory infiltrates versus 0.1% (w/v) Compound I-treated animals” value is reported as “absent”. For the same compound, in data set [1] (after 9 days topical, Compound I 0.05% and 0.1% (w/v), clobetasol 0.05% cream), the “back skin thickening (calipers)” value is “inhibited IMQ-induced skin thickening in the back”. For the same compound, the “global response score of dorsal skin, lower than in vehicle-treated psoriatic mice” value in data set [1] (clobetasol 0.05% topical, 9 days) is reported as roughly 42%. The “skin erythema (clinical score 0-4, in words)” value in data set [1] (day 8, topical QD 9 days, both Compound I doses 0.05% and 0.1% (w/v), clobetasol 0.05% cream) was “absent”. In addition, the “scaling (clinical score 0-4, in words)” value in data set [1] (day 8, topical QD 9 days, both Compound I doses, clobetasol 0.05% cream) was “absent in ⅝ mice and slight in the rest of the animals”. Besides, in data set [1] (setting [5]), the “Acanthosis (0-4), group mean score of dorsal skin” value was 1.4††; the “Basliar papillae (0-4), group mean score of dorsal skin” value is 0.0; the “Dermal inflammatory infiltrates (0-4), group mean score of dorsal skin” value is listed as 0.0††; the “Dilated tortuous capillaries (0-4), group mean score of dorsal skin” value is listed as 0.0. Besides, in data set [1] (setting [5]), the “Epidermal micro-abscesses (0-4), group mean score of dorsal skin” value stood at 0.0; the “Epidermal serocellular rust (0-4), group mean score of dorsal skin” value was 0.6; the “Hyperkeratosis (0-4), group mean score of dorsal skin” value was found to be 1.8; the “Mean Global Score, dorsal skin” value was 3.8. Further, the “Parakeratosis (0-4), group mean score of dorsal skin” value in data set [1] (setting [5]) is 0.0. In addition, the “severity of microscopic alterations of back skin (histopathology)” value in data set [1] (topical 0.05%, QD 9 days) is “lowest severity”. Also, in data set [1] (setting [6]), the “Acanthosis, protective effect” value is recorded as “+”; the “Dermal inflammatory infiltrates, protective effect” value is given as “+”; the “Epidermal serocellular crust, protective effect” value was “−”; the “Hyperkeratosis, protective effect” value is given as “−”. Further, in data set [2], the “reduction of body weight compared with vehicle-treated psoriatic mice” value was found to be 15% and the “reduction of spleen weight compared with vehicle-treated psoriatic mice” value turned out to be 62.6%.

Take `CC[C@@H](C(C)C)[C@H](O)[C@@H](O)[C@@H](C)[C@H]1CC[C@H]2[C@@H]3C[C@@H](F)C4=CC(=O)C=C[C@]4(C)[C@H]3CC[C@]12C` [Compound VI, (22S,23S)-6β-fluoro-22,23-dihydroxystigmasta-1,4-dien-3-one]: the “induction of LXR-alpha driven gene expression compared with GW3965 (1 uM)” value on LXR-alpha is “within the same range as that observed for GW3965”.

`O=S(=O)(c1ccccc1)N(CC(F)(F)F)c1ccc(C(O)(C(F)(F)F)C(F)(F)F)cc1` [Compound T0901317]: in data set [3], the “HDL-cholesterol plasmatic content higher than in Compound I- or Vehicle-treated mice” value came to 50%, the “total cholesterol plasmatic content higher than in Compound I- or Vehicle-treated mice” value was 50% and the “triglyceride plasmatic content higher than in Compound I- or Vehicle-treated mice” value was greater than 2 times. In data set [4], the “liver color versus DMSO-treated mice” value is “paler”; the “liver steatosis (liver weight and color)” value is recorded as “induces liver steatosis”. Besides, the “liver weight higher than in DMSO-treated mice” value in data set [4] (5 mg/kg) was 27% and ~23%.

Consider `CC[C@@H](C(C)C)[C@H](O)[C@@H](O)[C@@H](C)[C@H]1CC[C@H]2[C@@H]3C[C@@H](F)C4=CC(=O)CC[C@]4(C)[C@H]3CC[C@]12C` [Compound IV, (22S,23S)-6β-fluoro-22,23-dihydroxystigmast-4-en-3-one], for which the “induction of LXR-alpha driven gene expression compared with GW3965 (1 uM)” value on LXR-alpha is given as “within the same range as that observed for GW3965”.
